Test results taken from the NIST ThermoML archive (doi:10.1021/je1013476).

Columns and labels:
[1] = xn = mol fraction of the nth substance listed; settings: 101 kPa, Liquid; for viscosity: Capillary tube (Ostwald / Ubbelohde) method; for mass density: Vibrating tube method
[2] = excess molar enthalpy (molar enthalpy of mixing); xn = mol fraction of the nth substance listed; settings: 303.15 K, 101 kPa, Liquid, Calvet calorimetry

CCOC(=O)OCC [diethyl carbonate] + CCCCCCCCO
[1]
Settings | mass density [kg/m3] | viscosity [mPa·s]
288.15 K, x1 = 0.05879 | 834.94 | 8.723
288.15 K, x1 = 0.09178 | 838.6 | 7.678
288.15 K, x1 = 0.184 | 849.27 | 5.521
288.15 K, x1 = 0.2839 | 861.63 | 3.992
288.15 K, x1 = 0.4001 | 877.04 | 2.876
288.15 K, x1 = 0.5109 | 892.89 | 2.157
288.15 K, x1 = 0.598 | 906.21 | 1.773
288.15 K, x1 = 0.6927 | 921.66 | 1.441
288.15 K, x1 = 0.8073 | 941.89 | 1.157
288.15 K, x1 = 0.9275 | 965.14 | 0.953
288.15 K, x1 = 0.9531 | 970.42 | 0.921
293.15 K, x1 = 0.05259 | 830.75 | 7.441
293.15 K, x1 = 0.1047 | 836.45 | 6.062
293.15 K, x1 = 0.1967 | 847.03 | 4.538
293.15 K, x1 = 0.2955 | 859.15 | 3.308
293.15 K, x1 = 0.3964 | 872.38 | 2.544
293.15 K, x1 = 0.5031 | 887.37 | 1.951
293.15 K, x1 = 0.604 | 902.57 | 1.573
293.15 K, x1 = 0.6995 | 918.01 | 1.285
293.15 K, x1 = 0.8175 | 938.67 | 1.039
293.15 K, x1 = 0.9124 | 956.76 | 0.9
293.15 K, x1 = 0.9531 | 964.98 | 0.853
303.15 K, x1 = 0.05353 | 823.7 | 5.282
303.15 K, x1 = 0.1003 | 828.65 | 4.522
303.15 K, x1 = 0.1902 | 838.63 | 3.432
303.15 K, x1 = 0.3002 | 851.69 | 2.536
303.15 K, x1 = 0.4112 | 865.89 | 1.928
303.15 K, x1 = 0.5038 | 878.58 | 1.584
303.15 K, x1 = 0.5934 | 891.62 | 1.32
303.15 K, x1 = 0.6981 | 907.98 | 1.075
303.15 K, x1 = 0.8151 | 927.85 | 0.884
303.15 K, x1 = 0.9138 | 946.1 | 0.773
303.15 K, x1 = 0.9548 | 954.16 | 0.74
313.15 K, x1 = 0.05666 | 816.83 | 3.842
313.15 K, x1 = 0.1109 | 822.42 | 3.267
313.15 K, x1 = 0.1956 | 831.59 | 2.59
313.15 K, x1 = 0.2893 | 842.35 | 2.054
313.15 K, x1 = 0.4005 | 856.05 | 1.585
313.15 K, x1 = 0.5067 | 870.12 | 1.273
313.15 K, x1 = 0.6044 | 884.01 | 1.059
313.15 K, x1 = 0.7038 | 899.18 | 0.893
313.15 K, x1 = 0.8041 | 915.66 | 0.766
313.15 K, x1 = 0.9092 | 934.43 | 0.672
313.15 K, x1 = 0.954 | 942.96 | 0.643

[2]
Settings | excess molar enthalpy [kcal/mol]
x1 = 0.09134 | 0.176
x1 = 0.1276 | 0.236
x1 = 0.1764 | 0.31
x1 = 0.2484 | 0.394
x1 = 0.3155 | 0.46
x1 = 0.374 | 0.5
x1 = 0.4304 | 0.528
x1 = 0.491 | 0.544
x1 = 0.5699 | 0.542
x1 = 0.6268 | 0.529
x1 = 0.6895 | 0.499
x1 = 0.7492 | 0.455
x1 = 0.8111 | 0.387
x1 = 0.8705 | 0.298
x1 = 0.9357 | 0.167

CCOC(=O)OCC [diethyl carbonate] + CCCO
[1]
Settings | mass density [kg/m3] | viscosity [mPa·s]
288.15 K, x1 = 0.05124 | 821.17 | 2.135
288.15 K, x1 = 0.07262 | 826.61 | 2.007
288.15 K, x1 = 0.1063 | 834.89 | 1.833
288.15 K, x1 = 0.1511 | 845.43 | 1.638
288.15 K, x1 = 0.2122 | 858.98 | 1.459
288.15 K, x1 = 0.2638 | 869.76 | 1.33
288.15 K, x1 = 0.31 | 878.92 | 1.248
288.15 K, x1 = 0.4016 | 895.92 | 1.115
288.15 K, x1 = 0.5147 | 915.01 | 1
288.15 K, x1 = 0.5916 | 926.96 | 0.947
288.15 K, x1 = 0.5994 | 928.13 | 0.937
288.15 K, x1 = 0.6906 | 941.32 | 0.905
288.15 K, x1 = 0.7887 | 954.53 | 0.871
288.15 K, x1 = 0.8694 | 964.81 | 0.859
288.15 K, x1 = 0.9428 | 973.71 | 0.865
293.15 K, x1 = 0.04957 | 816.57 | 1.906
293.15 K, x1 = 0.1001 | 829.1 | 1.657
293.15 K, x1 = 0.2101 | 853.96 | 1.315
293.15 K, x1 = 0.3074 | 873.57 | 1.132
293.15 K, x1 = 0.4038 | 891.34 | 1.01
293.15 K, x1 = 0.5097 | 909.09 | 0.92
293.15 K, x1 = 0.6002 | 923.04 | 0.868
293.15 K, x1 = 0.6963 | 936.76 | 0.829
293.15 K, x1 = 0.8059 | 951.25 | 0.804
293.15 K, x1 = 0.8817 | 960.76 | 0.796
293.15 K, x1 = 0.9433 | 968.14 | 0.796
303.15 K, x1 = 0.05148 | 808.69 | 1.495
303.15 K, x1 = 0.1008 | 820.63 | 1.329
303.15 K, x1 = 0.2044 | 843.53 | 1.087
303.15 K, x1 = 0.3161 | 865.57 | 0.93
303.15 K, x1 = 0.4048 | 881.45 | 0.847
303.15 K, x1 = 0.4459 | 888.41 | 0.818
303.15 K, x1 = 0.6 | 912.35 | 0.743
303.15 K, x1 = 0.6892 | 924.91 | 0.715
303.15 K, x1 = 0.792 | 938.39 | 0.697
303.15 K, x1 = 0.8809 | 949.35 | 0.692
303.15 K, x1 = 0.9364 | 955.95 | 0.692
313.15 K, x1 = 0.04668 | 798.89 | 1.214
313.15 K, x1 = 0.1008 | 811.63 | 1.071
313.15 K, x1 = 0.2119 | 835.52 | 0.885
313.15 K, x1 = 0.3075 | 854.04 | 0.783
313.15 K, x1 = 0.4133 | 872.66 | 0.71
313.15 K, x1 = 0.5019 | 886.95 | 0.668
313.15 K, x1 = 0.5998 | 901.56 | 0.637
313.15 K, x1 = 0.6913 | 914.21 | 0.618
313.15 K, x1 = 0.7902 | 926.98 | 0.607
313.15 K, x1 = 0.8456 | 933.82 | 0.608
313.15 K, x1 = 0.8699 | 936.73 | 0.606
313.15 K, x1 = 0.8903 | 939.21 | 0.607
313.15 K, x1 = 0.9488 | 946.12 | 0.61

[2]
Settings | excess molar enthalpy [kcal/mol]
x1 = 0.05945 | 0.103
x1 = 0.1227 | 0.196
x1 = 0.1956 | 0.281
x1 = 0.2498 | 0.328
x1 = 0.2677 | 0.344
x1 = 0.3018 | 0.371
x1 = 0.3762 | 0.42
x1 = 0.4569 | 0.441
x1 = 0.4906 | 0.446
x1 = 0.5642 | 0.451
x1 = 0.6182 | 0.442
x1 = 0.6932 | 0.417
x1 = 0.7453 | 0.38
x1 = 0.824 | 0.312
x1 = 0.872 | 0.248
x1 = 0.9168 | 0.174

CCOC(=O)OCC [diethyl carbonate] + CCCCCO
[1]
Settings | mass density [kg/m3] | viscosity [mPa·s]
288.15 K, x1 = 0.05026 | 826.9 | 3.879
288.15 K, x1 = 0.106 | 836.4 | 3.215
288.15 K, x1 = 0.1881 | 850.28 | 2.529
288.15 K, x1 = 0.2879 | 866.92 | 1.972
288.15 K, x1 = 0.396 | 884.69 | 1.595
288.15 K, x1 = 0.4905 | 900.03 | 1.355
288.15 K, x1 = 0.5917 | 916.28 | 1.182
288.15 K, x1 = 0.7104 | 935.09 | 1.03
288.15 K, x1 = 0.8067 | 950.23 | 0.948
288.15 K, x1 = 0.896 | 964.17 | 0.898
288.15 K, x1 = 0.9607 | 974.25 | 0.871
293.15 K, x1 = 0.04854 | 822.8 | 3.391
293.15 K, x1 = 0.0572 | 824.25 | 3.292
293.15 K, x1 = 0.1071 | 832.6 | 2.796
293.15 K, x1 = 0.1988 | 847.85 | 2.138
293.15 K, x1 = 0.29 | 862.87 | 1.725
293.15 K, x1 = 0.398 | 880.41 | 1.402
293.15 K, x1 = 0.4939 | 895.79 | 1.202
293.15 K, x1 = 0.5998 | 912.55 | 1.049
293.15 K, x1 = 0.6968 | 927.7 | 0.947
293.15 K, x1 = 0.8009 | 943.91 | 0.869
293.15 K, x1 = 0.8902 | 957.76 | 0.826
293.15 K, x1 = 0.9604 | 968.66 | 0.808
303.15 K, x1 = 0.06248 | 817.46 | 2.453
303.15 K, x1 = 0.09976 | 823.53 | 2.195
303.15 K, x1 = 0.2017 | 839.99 | 1.686
303.15 K, x1 = 0.2898 | 854.09 | 1.395
303.15 K, x1 = 0.3969 | 871 | 1.159
303.15 K, x1 = 0.4922 | 885.91 | 1.013
303.15 K, x1 = 0.5941 | 901.64 | 0.893
303.15 K, x1 = 0.6987 | 917.65 | 0.808
303.15 K, x1 = 0.8039 | 933.63 | 0.75
303.15 K, x1 = 0.8997 | 948.13 | 0.715
303.15 K, x1 = 0.9608 | 957.42 | 0.703
313.15 K, x1 = 0.05411 | 808.37 | 1.951
313.15 K, x1 = 0.1042 | 816.28 | 1.705
313.15 K, x1 = 0.1939 | 830.39 | 1.373
313.15 K, x1 = 0.29 | 845.34 | 1.139
313.15 K, x1 = 0.406 | 863.19 | 0.95
313.15 K, x1 = 0.4965 | 876.96 | 0.847
313.15 K, x1 = 0.5957 | 891.9 | 0.763
313.15 K, x1 = 0.7474 | 914.56 | 0.675
313.15 K, x1 = 0.803 | 922.81 | 0.653
313.15 K, x1 = 0.8997 | 937.15 | 0.628
313.15 K, x1 = 0.9582 | 945.86 | 0.62

[2]
Settings | excess molar enthalpy [kcal/mol]
x1 = 0.04842 | 0.0916
x1 = 0.085 | 0.156
x1 = 0.1521 | 0.251
x1 = 0.2122 | 0.326
x1 = 0.263 | 0.373
x1 = 0.3154 | 0.418
x1 = 0.3592 | 0.441
x1 = 0.4399 | 0.477
x1 = 0.4581 | 0.478
x1 = 0.5444 | 0.491
x1 = 0.64 | 0.47
x1 = 0.6925 | 0.435
x1 = 0.7415 | 0.407
x1 = 0.7993 | 0.357
x1 = 0.8519 | 0.291
x1 = 0.9139 | 0.191
